Some test systems named below: 786-0 renal; CCRF-CEM leukemia; HCT-116 colon; HL-60(TB) leukemia; HT29 colon; MOLT-4 leukemia; NCI-H522 lung; OVCAR-3 ovarian; SNB-75 CNS; UO-31 renal; HCT-15 colon; MALME-3M melanoma; DU-145 prostate; T-47D breast; NCI/ADR-RES ovarian.
What all share (experiment): inhibition of tumour cell growth, NCI panel, 48 h

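Compound exposure: 48 hours, 5 concentrations, 96-well plates. TGI is the concentration that stops growth completely.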 Where a SMILES comes first, the peptide text is derived from it. The star is where a group is joined. Cbz = O=C(OCc1ccccc1)*; Boc = CC(C)(C)OC(=O)*; OSu = O=C1CCC(=O)N1O*; Bn = c1ccc(C*)cc1 Bounds are passed on as bounds.

Regarding `CO[C@@H]1C=C[C@@]23c4cc5c(cc4C(=O)O[C@H]2CN(C)[C@H]3C1)OCO5`, the TGI in the assay on 786-0 renal, in the assay on CCRF-CEM leukemia, in the assay with HCT-116 colon, in the assay with HL-60(TB) leukemia, with HT29 colon and in the assay on MOLT-4 leukemia was above 100 µM in each case. Also, the TGI with NCI-H522 lung, in the assay on OVCAR-3 ovarian, with SNB-75 CNS and in the assay on UO-31 renal was above 100 µM in each case.
In the case of `CC(=O)OC1CCCn2c1nc1c2C(=O)C(C)=C(N2CC2)C1=O` (configuration not stated), the TGI came to 1.65 µM in the assay on 786-0 renal; 59 µM in the assay with CCRF-CEM leukemia; 1.96 µM with HCT-116 colon; 0.726 µM in the assay on HCT-15 colon; 14.6 µM with HL-60(TB) leukemia; 0.645 µM in the assay on HT29 colon. Also, the TGI is 0.47 µM with MALME-3M melanoma; above 100 µM with MOLT-4 leukemia; 0.636 µM in the assay on NCI-H522 lung; 1.39 µM with OVCAR-3 ovarian; 0.808 µM in the assay on SNB-75 CNS; 5.07 µM with UO-31 renal.
As to `O=C(N=Nc1cccc(Cl)c1)NNc1cccc(Cl)c1`, the TGI with 786-0 renal worked out at 28.4 µM; in the assay on CCRF-CEM leukemia, 48.5 µM; with DU-145 prostate it was 41.8 µM; with HCT-116 colon, 21.2 µM; with HCT-15 colon, 75.7 µM; in the assay on HL-60(TB) leukemia, 41.7 µM. The TGI was 43.5 µM in the assay on HT29 colon; 39.6 µM with MALME-3M melanoma; 42.7 µM with MOLT-4 leukemia; 42.6 µM in the assay with NCI-H522 lung; 29.9 µM in the assay with OVCAR-3 ovarian; above 100 µM with SNB-75 CNS. In addition, the TGI in the assay on T-47D breast was above 100 µM; in the assay with UO-31 renal it was 45.5 µM.
As to `CN(NC(=O)c1cccs1)C1=NCCCCN1`, the TGI in the assay with 786-0 renal, in the assay on CCRF-CEM leukemia, in the assay with HCT-116 colon, in the assay with HCT-15 colon, in the assay on HL-60(TB) leukemia and in the assay on HT29 colon was above 100 µM throughout. Besides, the TGI in the assay with MALME-3M melanoma, in the assay on MOLT-4 leukemia, in the assay on NCI-H522 lung, in the assay with NCI/ADR-RES ovarian, with OVCAR-3 ovarian and in the assay with SNB-75 CNS was above 100 µM throughout. In addition, the TGI with T-47D breast and in the assay on UO-31 renal was above 100 µM throughout.
`CC(C)(C)OC(=O)NC(Cc1ccc(OCc2ccccc2)cc1)C(=O)NC(CCCCNC(=O)OCc1ccccc1)C(=O)ON1C(=O)CCC1=O` (configuration not stated) (Boc-Tyr(Bn)-Lys(Cbz)-OSu; configuration not given here): the TGI amounted to 35.7 µM in the assay with 786-0 renal; 41 µM in the assay on HCT-116 colon; 32 µM in the assay on HCT-15 colon; 49.3 µM with HL-60(TB) leukemia; 80.2 µM in the assay with HT29 colon; 46.9 µM with MALME-3M melanoma. Moreover, the figures for the TGI in the assay with MOLT-4 leukemia, in the assay on SNB-75 CNS and in the assay on UO-31 renal were 48.2 µM, 54.9 µM and 76.3 µM, respectively.
In the case of `CC1(C)C(O)C[C@@H](O)[C@@]2(C)C1CC[C@]1(C)C2C[C@@H](O)[C@@H]2C([C@@]3(C)CC[C@@H](C(C)(C)O)O3)CCC21C` (some centres not stated), the TGI in the assay with 786-0 renal is 30.1 µM; with CCRF-CEM leukemia, above 66.1 µM; with HCT-116 colon, 30.9 µM; in the assay on HCT-15 colon it was 25.1 µM; in the assay on HL-60(TB) leukemia, above 55 µM; in the assay with HT29 colon it was 31.6 µM. The TGI in the assay with MALME-3M melanoma amounted to 31.8 µM; with MOLT-4 leukemia, 67.7 µM; in the assay on NCI-H522 lung, 27.8 µM; in the assay on OVCAR-3 ovarian it was 29.4 µM; in the assay with SNB-75 CNS, 29.7 µM; in the assay with UO-31 renal it was 32.8 µM.
As to `CC(=O)Nc1ccc2[nH]c(-c3cccc(Cl)c3)cc(=O)c2c1`, the TGI in the assay on 786-0 renal was above 100 µM; with CCRF-CEM leukemia, above 100 µM; in the assay with HCT-15 colon, above 100 µM; in the assay with HL-60(TB) leukemia, above 100 µM; in the assay on HT29 colon, 33.7 µM; in the assay with MALME-3M melanoma, above 100 µM. Further, the TGI in the assay on MOLT-4 leukemia, in the assay on NCI-H522 lung, in the assay on NCI/ADR-RES ovarian and in the assay on SNB-75 CNS was above 100 µM in each case.
On to `CN(C)S(=O)(=O)/N=C/c1cccc(/C=N/S(=O)(=O)N(C)C)c1`, for which the TGI in the assay with 786-0 renal, with CCRF-CEM leukemia, in the assay with DU-145 prostate, in the assay with HCT-116 colon, with HCT-15 colon and in the assay on HL-60(TB) leukemia was above 100 µM each time. Moreover, the TGI with MOLT-4 leukemia was above 100 µM; with NCI/ADR-RES ovarian, above 100 µM; in the assay on OVCAR-3 ovarian, above 100 µM; with SNB-75 CNS, 92.8 µM; with T-47D breast, above 100 µM; with UO-31 renal, above 100 µM.
Regarding `O=C(O)c1cc(/C=C/c2cc(O)ccc2O)ccc1O`, the TGI in the assay with 786-0 renal, in the assay on CCRF-CEM leukemia, with DU-145 prostate, in the assay on HCT-15 colon, with HL-60(TB) leukemia and in the assay with HT29 colon was above 10 µM in each case. In addition, the TGI with MALME-3M melanoma, in the assay with MOLT-4 leukemia, in the assay on NCI-H522 lung, with NCI/ADR-RES ovarian, in the assay on OVCAR-3 ovarian and in the assay with UO-31 renal was above 10 µM throughout.
Consider `COc1cc(OC)c2nc(C)c3c(c2c1)NCC3`, for which the TGI with 786-0 renal amounted to 17.2 µM; in the assay on CCRF-CEM leukemia it was 31.3 µM; with DU-145 prostate it was 59 µM; with HCT-116 colon, 12.9 µM; in the assay with HCT-15 colon, 25.9 µM; with HL-60(TB) leukemia, 40.7 µM. In addition, the TGI was 15.5 µM with HT29 colon; 24 µM in the assay on MALME-3M melanoma; 19.6 µM in the assay on NCI-H522 lung; 71.2 µM in the assay on NCI/ADR-RES ovarian; 33.4 µM with OVCAR-3 ovarian; 26.6 µM in the assay with SNB-75 CNS. In the assay with UO-31 renal, this compound displayed a TGI of 27.5 µM.
For `CC(C)=NNC=N/C(C#N)=C(\N)C#N`, the TGI with 786-0 renal, with CCRF-CEM leukemia, with DU-145 prostate, in the assay with HCT-116 colon, in the assay with HCT-15 colon and in the assay on HL-60(TB) leukemia was above 100 µM in each case. Besides, the TGI in the assay with HT29 colon, in the assay with MALME-3M melanoma, in the assay on MOLT-4 leukemia, with NCI-H522 lung, in the assay with NCI/ADR-RES ovarian and in the assay on OVCAR-3 ovarian was above 100 µM throughout. Also, the TGI in the assay with SNB-75 CNS and with UO-31 renal was above 100 µM in each case.

These data come from PubChem BioAssay (NCI).
